Our source for the IC50 values is patent US9573930B2 (Quanticel Pharmaceuticals, Inc., priority 2014, dated 2017).

For this test, the target named is full-length human LSD1 (Homo sapiens (Human), UniProt O60341). Nature of the test: In vitro enzyme inhibition assay LSD-1 (TR-FRET). Type of test: biochemical. To be noted: H3K4me1-biotin peptide. The protocol:
This assay determines the ability of a test compound to inhibit LSD1 demethylase activity.
The enzymatic assay of LSD1 activity is based on Time Resolved-Fluorescence Resonance Energy Transfer (TR-FRET) detection.
The ability of the compounds disclosed herein to inhibit LSD1 activity was quantified and the respective IC50 value was determined.
For orientation: In TR-FRET formats the signal depends on donor and acceptor labels being close together.
Usually IC50 stands for the concentration at which inhibition is half-maximal. The low end stands for greater potency, the high end for weaker potency. In turn, `CNC(=O)c1ccc(-c2c(-c3ccc(C#N)cc3)nc(N3CCC(N)CC3)n(C)c2=O)cc1F` [Example 40, {4-[2-(4-aminopiperidyl)-6-(4-cyanophenyl)-3-methyl-4-oxo(3-hydropyrimidin-5-yl)]-2-fluorophenyl}-N-methylcarboxamide] displayed an IC50 of under 100 nM.
For `Cn1c(N2CCC(N)CC2)nc(-c2ccc(C#N)cc2)c(-c2ccc(C(N)=O)c(F)c2)c1=O` [Example 41, 4-[2-(4-aminopiperidyl)-6-(4-cyanophenyl)-3-methyl-4-oxo(3-hydropyrimidin-5-yl)]-2-fluorobenzamide] the value was under 100 nM.
Regarding `Cn1c(N2CCC(N)CC2)nc(-c2ccc(C#N)c(F)c2)c(-c2ccc3c(c2)CNC3=O)c1=O` [Example 42, 4-[2-(4-amino-piperidin-1-yl)-1-methyl-6-oxo-5-(1-oxo-2,3-dihydro-1H-isoindol-5-yl)-1,6-dihydro-pyrimidin-4-yl]-2-fluoro-benzonitrile], the IC50 was under 100 nM.
As for `COc1ccc(-c2c(-c3ccc(C#N)cc3)nc(NC[C@H]3CCNC3)n(C)c2=O)cc1F` [Example 44, 4-{5-(3-fluoro-4-methoxy-phenyl)-1-methyl-6-oxo-2-[(3S)-(pyrrolidin-3-ylmethyl)-amino]-1,6-dihydro-pyrimidin-4-yl}-benzonitrile], the IC50 was under 100 nM.
For `COc1ccc(-c2c(-c3ccc(C#N)cc3)nc(NC[C@@H]3CCNC3)n(C)c2=O)cc1F` [Example 45, 4-{5-(3-fluoro-4-methoxy-phenyl)-1-methyl-6-oxo-2-[(3R)-(pyrrolidin-3-ylmethyl)-amino]-1,6-dihydro-pyrimidin-4-yl}-benzonitrile] the value was under 100 nM; for `COc1ccc(-c2c(-c3ccc(C#N)c(F)c3)nc(N3CCCNCC3)n(C)c2=O)cc1F` [Example 46, 4-[2-[1,4]diazepan-1-yl-5-(3-fluoro-4-methoxy-phenyl)-1-methyl-6-oxo-1,6-dihydro-pyrimidin-4-yl]-2-fluoro-benzonitrile], under 100 nM; for `COc1ccc(-c2c(-c3ccc(C#N)c(F)c3)nc(N3CCNCC3)n(C)c2=O)cc1F` [Example 47, 2-fluoro-4-[5-(3-fluoro-4-methoxy-phenyl)-1-methyl-6-oxo-2-piperazin-1-yl-1,6-dihydro-pyrimidin-4-yl]-benzonitrile], under 100 nM.
`CN(C)c1ncc(-c2c(-c3ccc(C#N)c(F)c3)nc(N3CCC(N)CC3)n(C)c2=O)cn1` [Example 49, 4-[2-(4-amino-piperidin-1-yl)-2′-dimethylamino-1-methyl-6-oxo-1,6-dihydro-[5,5′]bipyrimidinyl-4-yl]-2-fluoro-benzonitrile] returned a half-maximal inhibitory concentration (IC50) of under 100 nM.
`CNC(=O)c1ccc(-c2c(-c3ccc(C#N)c(F)c3)nc(N3CCC(N)CC3)n(C)c2=O)cn1` [Example 50, 5-[2-(4-amino-piperidin-1-yl)-4-(4-cyano-3-fluoro-phenyl)-1-methyl-6-oxo-1,6-dihydro-pyrimidin-5-yl]-pyridine-2-carboxylic acid methylamide] displayed an IC50 of under 100 nM.
With `COc1ccc(-c2c(-c3ccc(C#N)c(F)c3)nc(NC[C@H]3CCNC3)n(C)c2=O)cc1` [Example 51, 2-fluoro-4-{5-(4-methoxy-phenyl)-1-methyl-6-oxo-2-[(3S)-(pyrrolidin-3-ylmethyl)-amino]-1,6-dihydro-pyrimidin-4-yl}-benzonitrile], the 50% inhibitory concentration (IC50) is under 100 nM.
On to `COc1ccc(-c2c(-c3ccc(C#N)c(F)c3)nc(NC[C@@H]3CCNC3)n(C)c2=O)cc1` [Example 52, 2-luoro-4-{5-(4-methoxy-phenyl)-1-methyl-6-oxo-2-[(3R)-(pyrrolidin-3-ylmethyl)-amino]-1,6-dihydro-pyrimidin-4-yl}-benzonitrile], for which the IC50 is under 100 nM.
With `COc1ccc(-c2c(-c3ccc(C#N)c(F)c3)nc(NC3CCNCC3)n(C)c2=O)cc1` [Example 53, 2-fluoro-4-[5-(4-methoxy-phenyl)-1-methyl-6-oxo-2-(piperidin-4-ylamino)-1,6-dihydro-pyrimidin-4-yl]-benzonitrile], the IC50 was under 100 nM.
The value for `COc1ccc(-c2c(-c3ccc(C#N)c(F)c3)nc(N(C)C[C@H]3CCNC3)n(C)c2=O)cc1` [Example 54, 2-fluoro-4-[5-(4-methoxy-phenyl)-1-methyl-2-(methyl-(3S)-pyrrolidin-3-ylmethyl-amino)-6-oxo-1,6-dihydro-pyrimidin-4-yl]-benzonitrile] was under 100 nM; that for `COc1ccc(-c2c(-c3ccc(C#N)c(F)c3)nc(N(C)C3CCNCC3)n(C)c2=O)cc1` [Example 55, 2-fluoro-4-[5-(4-methoxy-phenyl)-1-methyl-2-(methyl-piperidin-4-yl-amino)-6-oxo-1,6-dihydro-pyrimidin-4-yl]-benzonitrile] was under 100 nM; that for `CN(C)c1ccc(-c2c(-c3ccc(C#N)c(F)c3)nc(N3CCC(N)CC3)n(C)c2=O)cn1` [Example 57, 4-[2-(4-amino-piperidin-1-yl)-5-(6-dimethylamino-pyridin-3-yl)-1-methyl-6-oxo-1,6-dihydro-pyrimidin-4-yl]-2-fluoro-benzonitrile] was under 100 nM.
In the case of `CNC1CCN(c2nc(-c3ccc(C#N)c(F)c3)c(-c3ccc(OC)nc3)c(=O)n2C)CC1` [Example 58, 2-fluoro-4-[5-(6-methoxy-pyridin-3-yl)-1-methyl-2-(4-methylamino-piperidin-1-yl)-6-oxo-1,6-dihydro-pyrimidin-4-yl]-benzonitrile], the IC50 is under 100 nM.
The value for `CN(C)c1ccc(-c2c(-c3ccc(C#N)c(F)c3)nc(N3CCC(N)CC3)n(C)c2=O)cc1` [Example 59, 4-[2-(4-amino-piperidin-1-yl)-5-(4-dimethylamino-phenyl)-1-methyl-6-oxo-1,6-dihydro-pyrimidin-4-yl]-2-fluoro-benzonitrile] was under 100 nM; that for `Cn1c(N2CCC(N)CC2)nc(-c2ccc(C#N)c(F)c2)c(-c2ccc(N3CCCC3)nc2)c1=O` [Example 60, 4-[2-(4-amino-piperidin-1-yl)-1-methyl-6-oxo-5-(6-pyrrolidin-1-yl-pyridin-3-yl)-1,6-dihydro-pyrimidin-4-yl]-2-fluoro-benzonitrile] was under 100 nM.
In turn, `COc1ccc(-c2c(-c3ccc(C#N)c(F)c3)nc(N3CCCNCC3)n(C)c2=O)cn1` [Example 61, 4-[2-[1,4]diazepan-1-yl-5-(6-methoxy-pyridin-3-yl)-1-methyl-6-oxo-1,6-dihydro-pyrimidin-4-yl]-2-fluoro-benzonitrile] showed an IC50 of under 100 nM.
Turning to `COc1ccc(-c2c(-c3ccc(C#N)cc3)nc(N3CCCNCC3)n(C)c2=O)cn1` [Example 62], the IC50 is under 100 nM.
`CN(C)c1ccc(-c2c(-c3ccc(C#N)c(F)c3)nc(N3CCCNCC3)n(C)c2=O)cn1` [Example 63, 4-[2-[1,4]diazepan-1-yl-5-(6-dimethylamino-pyridin-3-yl)-1-methyl-6-oxo-1,6-dihydro-pyrimidin-4-yl]-2-fluoro-benzonitrile] yielded a half-maximal inhibitory concentration (IC50) of under 100 nM.
Consider `COc1ccc(-c2c(-c3ccc(C#N)c(F)c3)nc(N3CC(N)C3)n(C)c2=O)cc1` [Example 64, 4-[2-(3-amino-azetidin-1-yl)-5-(4-methoxy-phenyl)-1-methyl-6-oxo-1,6-dihydro-pyrimidin-4-yl]-2-fluoro-benzonitrile], for which the IC50 is under 100 nM.
`CNC1CCN(c2nc(-c3ccc(C#N)c(F)c3)c(-c3ccc4nn(C)cc4c3)c(=O)n2C)CC1` [Example 65, 2-fluoro-4-[1-methyl-2-(4-methylamino-piperidin-1-yl)-5-(2-methyl-2H-indazol-5-yl)-6-oxo-1,6-dihydro-pyrimidin-4-yl]-benzonitrile]: the IC50 was under 100 nM.
`Cn1cc2cc(-c3c(-c4ccc(C#N)c(F)c4)nc(N4CCCNCC4)n(C)c3=O)ccc2n1` [Example 66, 4-[2-[1,4]diazepan-1-yl-1-methyl-5-(2-methyl-2H-indazol-5-yl)-6-oxo-1,6-dihydro-pyrimidin-4-yl]-2-fluoro-benzonitrile] showed a half-inhibitory concentration (IC50) of under 100 nM.
Turning to `CN(C)c1ccc(-c2c(-c3ccc(C#N)cc3)nc(N3CCCNCC3)n(C)c2=O)cn1` [Example 67, 4-[2-[1,4]diazepan-1-yl-5-(6-dimethylamino-pyridin-3-yl)-1-methyl-6-oxo-1,6-dihydro-pyrimidin-4-yl]-benzonitrile], the half-inhibitory concentration (IC50) was under 100 nM.
The value for `Cn1c(N2CCC(N)CC2)nc(-c2ccc(C#N)c(F)c2)c(-c2ccc(N3CCOCC3)nc2)c1=O` [Example 68, 4-[2-(4-amino-piperidin-1-yl)-1-methyl-5-(6-morpholin-4-yl-pyridin-3-yl)-6-oxo-1,6-dihydro-pyrimidin-4-yl]-2-fluoro-benzonitrile] was under 100 nM.
`COc1ccc(-c2c(-c3ccc(C#N)c(F)c3)nc(N3CC(CN)C3)n(C)c2=O)cc1` [Example 69, 4-[2-(3-aminomethyl-azetidin-1-yl)-5-(4-methoxy-phenyl)-1-methyl-6-oxo-1,6-dihydro-pyrimidin-4-yl]-2-fluoro-benzonitrile]: the half-inhibitory concentration (IC50) is under 100 nM.
As for `CNCC1CN(c2nc(-c3ccc(C#N)c(F)c3)c(-c3ccc(OC)cc3)c(=O)n2C)C1` [Example 70, 2-fluoro-4-[5-(4-methoxy-phenyl)-1-methyl-2-(3-methylaminomethyl-azetidin-1-yl)-6-oxo-1,6-dihydro-pyrimidin-4-yl]-benzonitrile], the concentration for half-maximal inhibition (IC50) was under 100 nM.
For the compound `CN(C)C1CCN(c2nc(-c3ccc(C#N)c(F)c3)c(-c3ccc4nn(C)cc4c3)c(=O)n2C)CC1` [Example 71, 4-[2-(4-dimethylamino-piperidin-1-yl)-1-methyl-5-(2-methyl-2H-indazol-5-yl)-6-oxo-1,6-dihydro-pyrimidin-4-yl]-2-fluoro-benzonitrile], the concentration for half-maximal inhibition (IC50) was under 100 nM.
For `CN(C)C1CCN(c2nc(-c3ccc(C#N)c(F)c3)c(-c3ccc4c(cnn4C)c3)c(=O)n2C)CC1` [Example 72, 4-[2-(4-dimethylamino-piperidin-1-yl)-1-methyl-5-(1-methyl-1H-indazol-5-yl)-6-oxo-1,6-dihydro-pyrimidin-4-yl]-2-fluoro-benzonitrile] the value was under 100 nM.
